Assay results: ChEMBL document CHEMBL4813963, “Discovery of pyrazolo-thieno[3,2-d]pyrimidinylamino-phenyl acetamides as type-II pan-tropomyosin receptor kinase (TRK) inhibitors: Design, synthesis, and biological evaluation” (Eur J Med Chem, 2021)
pIC50: −log10 of the molar value.

Tests used:
[1] = molecular target: High affinity nerve growth factor receptor (Homo sapiens, UniProt P04629); assay: Inhibition of recombinant His-tagged human TRKA (441 to 796 residues) expressed in baculovirus expression system at 20 uM using 5-FAM-EEPLYWSFPAKKK-CONH2 as substrate preincubated for 1 hr followed by substrate addition in presence of ATP by mobility shift assay relative to control
High affinity nerve growth factor receptor, sequence (P04629 33-796 limits assumed): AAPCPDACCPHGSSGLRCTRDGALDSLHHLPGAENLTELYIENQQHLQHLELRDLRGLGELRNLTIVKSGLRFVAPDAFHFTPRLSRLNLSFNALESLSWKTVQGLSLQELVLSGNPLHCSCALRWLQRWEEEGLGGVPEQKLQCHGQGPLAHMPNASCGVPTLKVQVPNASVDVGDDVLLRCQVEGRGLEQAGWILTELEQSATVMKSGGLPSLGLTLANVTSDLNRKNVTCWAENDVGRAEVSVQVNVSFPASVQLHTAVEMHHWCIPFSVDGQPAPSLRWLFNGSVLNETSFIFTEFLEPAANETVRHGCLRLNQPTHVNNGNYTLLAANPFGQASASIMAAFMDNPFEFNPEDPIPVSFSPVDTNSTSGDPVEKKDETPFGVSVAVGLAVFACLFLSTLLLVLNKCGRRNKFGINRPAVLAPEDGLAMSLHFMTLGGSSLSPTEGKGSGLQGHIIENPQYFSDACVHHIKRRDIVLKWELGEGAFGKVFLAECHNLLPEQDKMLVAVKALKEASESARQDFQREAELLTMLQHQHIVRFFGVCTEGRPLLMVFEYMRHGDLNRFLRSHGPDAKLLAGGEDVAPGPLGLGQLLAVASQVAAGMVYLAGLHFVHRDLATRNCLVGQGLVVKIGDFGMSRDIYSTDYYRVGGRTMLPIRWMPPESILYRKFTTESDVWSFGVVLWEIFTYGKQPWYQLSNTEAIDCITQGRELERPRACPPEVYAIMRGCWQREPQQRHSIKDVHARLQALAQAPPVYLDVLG

[2] = test system: KM12; assay: Cytotoxicity against human KM12 cells assessed as reduction in cell viability incubated for 72 hrs by resazurin based assay; type: functional; conditions: KM12, 72 h
[3] = Permeability of compound in human brain like endothelial cells BBB model at 10 uM after 120 mins by LC-MS analysis; type: ADME, cell-based; conditions: read-out: permeability (converted)
[4] = molecular target: Aurora kinase A (Homo sapiens, UniProt O14965); assay: Inhibition of Aurora A (unknown origin)
Aurora kinase A, sequence (O14965 whole entry): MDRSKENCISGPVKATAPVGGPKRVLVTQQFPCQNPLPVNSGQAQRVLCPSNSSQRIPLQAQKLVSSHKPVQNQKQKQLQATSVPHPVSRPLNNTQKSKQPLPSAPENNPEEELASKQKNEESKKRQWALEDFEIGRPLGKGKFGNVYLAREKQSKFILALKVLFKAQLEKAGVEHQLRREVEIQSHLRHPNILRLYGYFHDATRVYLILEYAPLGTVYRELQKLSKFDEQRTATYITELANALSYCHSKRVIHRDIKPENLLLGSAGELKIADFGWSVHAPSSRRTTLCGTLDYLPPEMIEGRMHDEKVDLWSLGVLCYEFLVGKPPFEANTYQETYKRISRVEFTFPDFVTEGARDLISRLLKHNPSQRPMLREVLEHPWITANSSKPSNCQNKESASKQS

[5] = molecular target: Aurora kinase B (Homo sapiens, UniProt Q96GD4); assay: Inhibition of Aurora B (unknown origin)
Aurora kinase B, sequence (Q96GD4 whole entry): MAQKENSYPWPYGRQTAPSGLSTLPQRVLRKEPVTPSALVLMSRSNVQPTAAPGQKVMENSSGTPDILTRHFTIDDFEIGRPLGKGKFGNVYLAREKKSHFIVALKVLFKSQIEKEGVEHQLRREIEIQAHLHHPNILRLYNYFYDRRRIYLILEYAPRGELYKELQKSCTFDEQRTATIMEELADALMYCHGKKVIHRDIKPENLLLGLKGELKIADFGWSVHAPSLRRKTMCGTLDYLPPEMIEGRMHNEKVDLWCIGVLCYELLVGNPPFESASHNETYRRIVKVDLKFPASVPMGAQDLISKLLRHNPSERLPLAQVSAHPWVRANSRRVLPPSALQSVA

[6] = molecular target: Macrophage colony-stimulating factor 1 receptor (Homo sapiens, UniProt P07333); assay: Inhibition of CSF1R (unknown origin)
Macrophage colony-stimulating factor 1 receptor, sequence (P07333 whole entry): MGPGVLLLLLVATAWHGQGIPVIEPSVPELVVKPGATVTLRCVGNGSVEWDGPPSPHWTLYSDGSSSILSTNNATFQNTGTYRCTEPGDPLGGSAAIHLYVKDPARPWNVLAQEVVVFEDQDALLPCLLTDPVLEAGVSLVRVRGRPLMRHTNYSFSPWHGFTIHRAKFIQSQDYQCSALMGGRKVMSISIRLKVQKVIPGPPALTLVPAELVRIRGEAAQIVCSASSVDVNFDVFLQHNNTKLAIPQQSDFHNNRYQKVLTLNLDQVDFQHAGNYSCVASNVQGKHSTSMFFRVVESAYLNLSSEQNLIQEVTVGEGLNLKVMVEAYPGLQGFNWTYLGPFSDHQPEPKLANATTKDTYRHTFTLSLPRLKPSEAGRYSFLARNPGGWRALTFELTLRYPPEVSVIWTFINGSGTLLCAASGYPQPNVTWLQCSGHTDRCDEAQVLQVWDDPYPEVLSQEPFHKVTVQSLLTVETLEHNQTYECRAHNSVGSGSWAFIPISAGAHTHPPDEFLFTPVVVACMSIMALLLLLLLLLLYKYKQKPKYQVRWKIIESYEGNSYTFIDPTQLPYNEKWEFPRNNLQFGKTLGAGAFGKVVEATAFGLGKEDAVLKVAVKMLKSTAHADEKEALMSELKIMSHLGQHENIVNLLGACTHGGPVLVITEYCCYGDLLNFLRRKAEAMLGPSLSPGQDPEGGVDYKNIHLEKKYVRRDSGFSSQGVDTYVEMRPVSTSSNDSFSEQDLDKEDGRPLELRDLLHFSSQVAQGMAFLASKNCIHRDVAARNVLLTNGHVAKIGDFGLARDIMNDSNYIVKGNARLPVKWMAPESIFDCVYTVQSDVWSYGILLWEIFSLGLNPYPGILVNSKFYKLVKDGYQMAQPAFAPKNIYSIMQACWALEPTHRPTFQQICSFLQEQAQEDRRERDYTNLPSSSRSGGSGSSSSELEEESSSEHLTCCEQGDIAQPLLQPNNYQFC

[7] = molecular target: Mitogen-activated protein kinase kinase kinase kinase 4 (Homo sapiens, UniProt O95819); assay: Inhibition of MAP4K4 (unknown origin)
[8] = molecular target: Epidermal growth factor receptor (Homo sapiens, UniProt P00533); assay: Inhibition of EGFR (unknown origin)
Epidermal growth factor receptor, sequence (P00533 whole entry): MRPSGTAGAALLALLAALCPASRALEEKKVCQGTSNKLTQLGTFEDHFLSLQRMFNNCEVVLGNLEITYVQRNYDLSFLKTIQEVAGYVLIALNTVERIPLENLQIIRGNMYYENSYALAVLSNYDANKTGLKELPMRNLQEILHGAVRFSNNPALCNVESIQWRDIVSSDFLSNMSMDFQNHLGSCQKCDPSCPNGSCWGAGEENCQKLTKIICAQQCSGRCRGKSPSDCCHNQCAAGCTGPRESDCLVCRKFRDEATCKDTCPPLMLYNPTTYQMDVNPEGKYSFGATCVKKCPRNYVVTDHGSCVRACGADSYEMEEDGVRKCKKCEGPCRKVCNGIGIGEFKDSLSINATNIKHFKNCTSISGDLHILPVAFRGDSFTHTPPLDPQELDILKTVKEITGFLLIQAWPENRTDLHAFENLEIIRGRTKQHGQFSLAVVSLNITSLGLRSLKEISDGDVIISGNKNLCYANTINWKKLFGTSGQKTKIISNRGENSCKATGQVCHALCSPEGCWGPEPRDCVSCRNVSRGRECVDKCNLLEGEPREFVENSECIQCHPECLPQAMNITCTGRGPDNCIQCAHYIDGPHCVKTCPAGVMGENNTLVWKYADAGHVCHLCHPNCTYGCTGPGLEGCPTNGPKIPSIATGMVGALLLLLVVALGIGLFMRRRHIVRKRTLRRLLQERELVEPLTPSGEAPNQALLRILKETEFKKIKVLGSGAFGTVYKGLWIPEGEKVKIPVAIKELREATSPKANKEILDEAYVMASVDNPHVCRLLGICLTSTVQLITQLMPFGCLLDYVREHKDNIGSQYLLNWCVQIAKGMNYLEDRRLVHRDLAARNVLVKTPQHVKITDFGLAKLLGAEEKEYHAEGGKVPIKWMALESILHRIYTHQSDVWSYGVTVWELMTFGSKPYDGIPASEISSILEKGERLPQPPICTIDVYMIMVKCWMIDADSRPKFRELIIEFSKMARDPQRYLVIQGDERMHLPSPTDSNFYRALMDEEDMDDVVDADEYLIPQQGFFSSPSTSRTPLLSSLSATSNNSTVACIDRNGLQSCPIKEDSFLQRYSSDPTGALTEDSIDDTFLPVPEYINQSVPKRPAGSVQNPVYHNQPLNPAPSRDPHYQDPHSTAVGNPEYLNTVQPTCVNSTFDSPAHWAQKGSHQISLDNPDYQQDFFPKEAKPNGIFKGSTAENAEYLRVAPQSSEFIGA

[9] = molecular target: Serine/threonine-protein kinase Nek2 (Homo sapiens, UniProt P51955); assay: Inhibition of NEK2 (unknown origin)
Serine/threonine-protein kinase Nek2, sequence (P51955 whole entry): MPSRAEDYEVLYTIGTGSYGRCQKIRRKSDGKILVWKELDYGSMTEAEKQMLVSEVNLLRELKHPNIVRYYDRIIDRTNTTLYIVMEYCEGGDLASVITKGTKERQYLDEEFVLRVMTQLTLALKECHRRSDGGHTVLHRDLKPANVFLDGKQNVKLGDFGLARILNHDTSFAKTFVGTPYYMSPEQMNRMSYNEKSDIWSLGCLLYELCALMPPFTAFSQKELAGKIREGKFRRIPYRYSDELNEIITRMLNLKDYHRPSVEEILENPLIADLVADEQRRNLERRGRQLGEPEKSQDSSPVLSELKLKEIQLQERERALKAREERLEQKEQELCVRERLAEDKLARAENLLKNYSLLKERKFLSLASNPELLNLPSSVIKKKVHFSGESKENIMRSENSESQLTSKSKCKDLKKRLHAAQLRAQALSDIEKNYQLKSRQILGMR

inhibition [1] [%]	Papp at 2 h, 10 µM [3] [×10⁻⁶ cm/s]	pIC50 [4]	pIC50 [5]	pIC50 [6]	pIC50 [7]	pIC50 [8]	pIC50 [9]	Structure (SMILES)	pIC50 [2]
16.5	–	–	–	–	–	–	–	O=C(c1ccc(Nc2ncnc3ccsc23)cc1)N1CCCCC1	3.82
–	50.5	6.05	5.70	4.87	4.38	3.75	< 3.70	Cn1cc(-c2cc3ncnc(Nc4ccc(CC(=O)Nc5cc(C(C)(C)C)nn5C)cc4)c3s2)cn1	–
